Measurements taken from article PMC6213879, “Synthesis and Biological Evaluation of Novel Dehydroabietic Acid-Oxazolidinone Hybrids for Antitumor Properties” (International Journal of Molecular Sciences, 2018).

Tests used:
Type in all cases: cell-based
[1] = system: MGC-803 human gastric cancer cell line; test: MTT cytotoxicity assay, MGC-803; details: Homo sapiens, MGC-803, 48 h, mean ± SD from three independent experiments
Experimental: (§1) The in vitro antiproliferative activity of the DHAA derivatives 3a–o and 4a–o against four human cancer cell lines (MGC-803 human gastric cancer cell line, CNE-2 human nasopharyngeal carcinoma cell line, SK-OV-3 human ovarian carcinoma cell line, NCI-H460 human lung cancer cell line) and the human normal liver cell line LO2 were evaluated by MTT (methyl thiazolytetrazolium) assay and compared with the parent compound DHAA and the positive control cisplatin in each panel.
(§2) The cytotoxicity of the compounds was evaluated against NCI-H460, MGC-803, SK-OV-3, CNE-2 and LO2 using an MTT assay. Cells were grown on 96-well micro-plates at a density of 4 × 10^3 cells per well in DMEM (dulbecco’s modified eagle medium) medium with 10% FBS (fetal bovine serum). The plates were incubated at 37 °C with 5% CO2. The cells were then exposed to different concentrations of target compounds and cisplatin and incubated for another 48 h. Control wells were formed by culture media with the maximum concentration of DMSO used in each assay (1‰). The cells were stained with 20 µL of MTT in an incubator for about 4 h. The medium was thrown away and replaced by […] DMSO. The absorbance (OD) value was read at 490 nm on an enzyme labeling instrument. Each experiment was repeated at least three times to obtain the mean values.

[2] = system: CNE-2 human nasopharyngeal carcinoma cell line; test: MTT cytotoxicity assay, CNE-2; details: Homo sapiens, CNE-2, 48 h, mean ± SD from three independent experiments
Experimental: as §1, §2

[3] = system: SK-OV-3 human ovarian carcinoma cell line; test: MTT cytotoxicity assay, SK-OV-3; details: Homo sapiens, SK-OV-3, 48 h, mean ± SD from three independent experiments
Experimental: as §1, §2

[4] = system: NCI-H460 human lung cancer cell line; test: MTT cytotoxicity assay, NCI-H460; details: Homo sapiens, NCI-H460, 48 h, mean ± SD from three independent experiments
Experimental: as §1, §2

[5] = system: human normal liver cell line LO2; test: MTT cytotoxicity assay, normal LO2 cells; details: Homo sapiens, L02, 48 h, mean ± SD from three independent experiments
Experimental: as §1, §2

Compound | IC50 [1] [µM] | IC50 [2] [µM] | IC50 [3] [µM] | IC50 [4] [µM] | IC50 [5] [µM]
CC(C)c1ccc2c(c1)CCC1[C@](C)(C(=O)OCC(O)CNc3ccccc3)CCC[C@]21C (stereo partly drawn) [Compound 3a, (1R,4aS)-2-Hydroxy-3-(Phenylamino)Propyl-7-Isopropyl-1,4a-Dimethyl-1,2,3,4,4a,9,10,10a-Octahydrophenanthrene-1-Carboxylate] | 7.1 ± 1.51 | 27.87 ± 0.25 | 15.1 ± 0.57 | 18.6 ± 0.97 | > 100
Cc1ccccc1NCC(O)COC(=O)[C@]1(C)CCC[C@]2(C)c3ccc(C(C)C)cc3CCC12 (stereo partly drawn) [Compound 3b, (1R,4aS)-2-Hydroxy-3-(2-Methylphenylamino)Propyl-7-Isopropyl-1,4a-Dimethyl-1,2,3,4,4a,9,10, 10a-Octahydrophenanthrene-1-Carboxylate] | 22.6 ± 2.71 | > 100 | > 100 | > 100 | > 100
Cc1cccc(NCC(O)COC(=O)[C@]2(C)CCC[C@]3(C)c4ccc(C(C)C)cc4CCC23)c1 (stereo partly drawn) [Compound 3c, (1R,4aS)-2-Hydroxy-3-(3-Methylphenylamino)Propyl-7-Isopropyl-1,4a-Dimethyl-1,2,3,4,4a,9,10, 10a-Octahydrophenanthrene-1-Carboxylate] | 12.3 ± 4.87 | 14.6 ± 0.19 | 14.8 ± 4.03 | 20.1 ± 2.95 | 34.7 ± 0.45
Cc1ccc(NCC(O)COC(=O)[C@]2(C)CCC[C@]3(C)c4ccc(C(C)C)cc4CCC23)cc1 (stereo partly drawn) [Compound 3d, (1R,4aS)-2-Hydroxy-3-(4-Methylphenylamino)Propyl-7-Isopropyl-1,4a-Dimethyl-1,2,3,4,4a,9,10, 10a-Octahydrophenanthrene-1-Carboxylate] | 21.8 ± 2.66 | 44.1 ± 2.89 | 29.9 ± 0.8 | 44.8 ± 5.26 | > 100
COc1ccccc1NCC(O)COC(=O)[C@]1(C)CCC[C@]2(C)c3ccc(C(C)C)cc3CCC12 (stereo partly drawn) [Compound 3e, (1R,4aS)-2-Hydroxy-3-(2-Methoxyphenylamino)Propyl-7-Isopropyl-1,4a-Dimethyl-1,2,3,4,4a,9, 10,10a-Octahydrophenanthrene-1-Carboxylate] | 28.5 ± 1.35 | 27.4 ± 0.51 | 19.5 ± 2.23 | 26.1 ± 1.92 | 32.3 ± 1.56
COc1cccc(NCC(O)COC(=O)[C@]2(C)CCC[C@]3(C)c4ccc(C(C)C)cc4CCC23)c1 (stereo partly drawn) [Compound 3f, (1R,4aS)-2-Hydroxy-3-(3-Methoxyphenylamino)Propyl-7-Isopropyl-1,4a-Dimethyl-1,2,3,4,4a,9, 10,10a-Octahydrophenanthrene-1-Carboxylate] | 18.4 ± 1.45 | 17.4 ± 4.32 | 18.01 ± 0.09 | 21.9 ± 8.61 | > 100
COc1ccc(NCC(O)COC(=O)[C@]2(C)CCC[C@]3(C)c4ccc(C(C)C)cc4CCC23)cc1 (stereo partly drawn) [Compound 3g, (1R,4aS)-2-Hydroxy-3-(4-Methoxyphenylamino)Propyl-7-Isopropyl-1,4a-Dimethyl-1,2,3,4,4a,9, 10,10a-Octahydrophenanthrene-1-Carboxylate] | 51.7 ± 1.85 | > 100 | > 100 | > 100 | > 100
CC(C)c1ccc2c(c1)CCC1[C@](C)(C(=O)OCC(O)CNc3ccccc3F)CCC[C@]21C (stereo partly drawn) [Compound 3h, (1R,4aS)-2-Hydroxy-3-(2-Fluorophenylamino)Propyl-7-Isopropyl-1,4a-Dimethyl-1,2,3,4,4a,9,10, 10a-Octahydrophenanthrene-1-Carboxylate] | 17.5 ± 3.51 | 45.7 ± 5.8 | > 100 | 30.2 ± 3.4 | > 100
CC(C)c1ccc2c(c1)CCC1[C@](C)(C(=O)OCC(O)CNc3cccc(F)c3)CCC[C@]21C (stereo partly drawn) [Compound 3i, (1R,4aS)-2-Hydroxy-3-(3-Fluorophenylamino)Propyl-7-Isopropyl-1,4a-Dimethyl-1,2,3,4,4a,9,10, 10a-Octahydrophenanthrene-1-Carboxylatev] | > 100 | > 100 | > 100 | > 100 | > 100
CC(C)c1ccc2c(c1)CCC1[C@](C)(C(=O)OCC(O)CNc3ccc(F)cc3)CCC[C@]21C (stereo partly drawn) [Compound 3j, (1R,4aS)-2-Hydroxy-3-(4-Fluorophenylamino)Propyl-7-Isopropyl-1,4a-Dimethyl-1,2,3,4,4a,9,10, 10a-Octahydrophenanthrene-1-Carboxylate] | 14.2 ± 1.7 | 20.7 ± 2.31 | 18.9 ± 1.66 | 15.6 ± 1.45 | 28.7 ± 0.55
CC(C)c1ccc2c(c1)CCC1[C@](C)(C(=O)OCC(O)CNc3cccc(Cl)c3)CCC[C@]21C (stereo partly drawn) [Compound 3k, (1R,4aS)-2-Hydroxy-3-(3-Chlorophenylamino)Propyl-7-Isopropyl-1,4a-Dimethyl-1,2,3,4,4a,9,10, 10a-Octahydrophenanthrene-1-Carboxylate] | 13.1 ± 2.66 | 18.2 ± 4.06 | 25.1 ± 4.8 | 18.1 ± 2.33 | 35.3 ± 0.57
CC(C)c1ccc2c(c1)CCC1[C@](C)(C(=O)OCC(O)CNc3ccc(Cl)cc3)CCC[C@]21C (stereo partly drawn) [Compound 3l, (1R,4aS)-2-Hydroxy-3-(4-Chlorophenylamino)Propyl-7-Isopropyl-1,4a-Dimethyl-1,2,3,4,4a,9,10, 10a-Octahydrophenanthrene-1-Carboxylate] | 34.48 ± 0.02 | > 100 | > 100 | > 100 | > 100
CC(C)c1ccc2c(c1)CCC1[C@](C)(C(=O)OCC(O)CNc3cccc(Br)c3)CCC[C@]21C (stereo partly drawn) [Compound 3m, (1R,4aS)-2-Hydroxy-3-(3-Bromophenylamino)Propyl-7-Isopropyl-1,4a-Dimethyl-1,2,3,4,4a,9,10, 10a-Octahydrophenanthrene-1-Carboxylate] | 16.5 ± 5.2 | 23.2 ± 2.78 | 30.3 ± 0.59 | 19.6 ± 1.12 | > 100
CC(C)c1ccc2c(c1)CCC1[C@](C)(C(=O)OCC(O)CNc3ccc(Br)cc3)CCC[C@]21C (stereo partly drawn) [Compound 3n, (1R,4aS)-2-Hydroxy-3-(4-Bromophenylamino)Propyl-7-Isopropyl-1,4a-Dimethyl-1,2,3,4,4a,9,10, 10a-Octahydrophenanthrene-1-Carboxylate] | 9.91 ± 7 | 17.9 ± 4.47 | 19 ± 2.11 | 19.1 ± 5.23 | > 100
C#Cc1cccc(NCC(O)COC(=O)[C@]2(C)CCC[C@]3(C)c4ccc(C(C)C)cc4CCC23)c1 (stereo partly drawn) [Compound 3o, (1R,4aS)-2-Hydroxy-3-(3-Ethynylphenylamino)Propyl-7-Isopropyl-1,4a-Dimethyl-1,2,3,4,4a,9, 10,10a-Octahydrophenanthrene-1-Carboxylate] | 13.4 ± 5.41 | 20 ± 1.09 | 23.1 ± 2.23 | 22.3 ± 2.74 | > 100
CC(C)c1ccc2c(c1)CCC1[C@](C)(C(=O)OCC3CN(c4ccccc4)C(=O)O3)CCC[C@]21C (stereo partly drawn) [Compound 4a, (1R,4aS)-(2-Oxo-3-Phenyloxazolidin-5-yl)Methyl-7-Isopropyl-1,4a-Dimethyl-1,2,3,4,4a,9,10,10a-Octahydrophenanthrene-1-Carboxylate] | 11 ± 4.41 | 9.69 ± 0.13 | > 100 | 4.83 ± 0.77 | > 100
